Reference: US20250345433A1, “Drug For Treating Disorders Of An Organ Or Tissue Function And Diseases Accompanied By Such Disorders, And The Method For Obtaining It” (priority 2018, published 2025)

Tests used:
[1] = system: male Wistar rats with hemorrhagic stroke; assay: Hemorrhagic stroke (intracerebral hemorrhage) model in rats; type: in vivo, rat
Protocol: In the study, male Wistar rats (180-200 g) were used. […] Drug administration was started 1 hour after the pathology simulation and then daily, not earlier than 1 hour before the behavioral tests.
This method involves the double introduction of autologous blood into the specified structure of the brain of animals. The hemorrhagic stroke simulated in this way in rats in localization corresponds to intracerebral hemorrhages that occur in humans when the lenticularity arteries rupture. The total volume of hematoma in animals corresponds to approximately 40-50 ml in terms of human body weight.

[2] = system: children with hyperactivity; assay: ADHD/hyperkinetic disorder in children vs. Piracetam (SNAP-IV, TOVA, fine motor); type: in vivo, human
Description: Materials and methods of examination. The study included 57 children aged 6 to 9 years (40 boys and 17 girls) who attended day care centers and elementary schools of secondary schools.
• 1. The presence of clinical signs of hyperactivity that meet the criteria of ICD-10 (F 90); 2. Age-6-9 years; • 3. Intellectual indicators are not lower than the average on the Wechsler scale (more than 90 points).
Children with behavioral disorders due to other mental disorders were excluded from the study. For 2 months, the main group of children (n=30) with clinical signs of GH received monotherapy for the claimed medicament in 2 tablet 3 times a day. Children from the control group, similar to the main group by clinical signs, sex and age (n=27), were administered Piracetam in standard age doses for the same period.
The assessment of the severity of GH according to the criteria of attention disorder, hyperactivity and impulsivity in the examined children was carried out using the SNAP-IV scale (Swanson J., 1992). The psychophysiological test TOVA (The Test of Variables of Attention), allowed to assess the degree of attention disorders (omissions of significant stimuli) and impulsivity (false presses of a button), information processing speed (reaction time) in relation to standard indicators (Greenberg F M, Waldman I D, 1993). The child's fine motor skills were evaluated using tests from the battery of A. R. Luria (1973), selected by testing on these age groups with the development of criteria for scoring points Zh. M. Glozman, et al. (2006).
The results of the study. At the first stage of the study, using the SNAP-IV scale (Swanson J., 1992) in children of the main and control groups, an initial assessment of the severity of GH was carried out separately for each of the criteria (attention disorder, hyperactivity and impulsivity). Repeated similar assessment was carried out after a two-month course of therapy with the declared Drug in the main group and Piracetam therapy in the control group. The obtained indicators were compared with statistical processing (Table 28).
The computer-aided testing of TOVA (“Test of Variables of Attention”) was represented by three groups of tests, which allow judging the degree of attention disorder (missing significant stimuli), impulsivity (false pressing a button), information processing speed (reaction time). Baseline indicators of children with GH before treatment were compared with those of children of the main group (treatment with the claimed Drug) and indicators of children of the control group (Piracetam therapy) after a two-month course of treatment.

children with increase in disinhibition, excitability ([2]; 2 months) | children with sleep disturbance ([2]; 2 months) | number of children with increase in disinhibition, excitability ([2]; 2 months, n = 27) | number of children with sleep disturbance ([2]; 2 months, n = 27) | Structure (SMILES) | decrease of the area of the hemorrhagic lesion ([1]; 7th day compared with the 3rd day) | total time spent in the dark compartment, passive avoidance reaction, M (QI; Q3) ([1]; 7th day of the study) | difference in motor preference indices ([1]; compared to negative test (Preparation 4)) | TOVA false alarm ([2]; First half of the test, after treatment, before 15.3 ± 2.2) | TOVA Omissions of significant incentives ([2]; First half of the test, after treatment, before 19.1 ± 2.4) | TOVA response time ([2]; First half of the test, after treatment, before 795 ± 103) | TOVA false alarm ([2]; The second half of the test, after treatment, before 29.2 ± 3.3) | TOVA Omissions of significant incentives ([2]; The second half of the test, after treatment, before 29.5 ± 3.3) | TOVA response time ([2]; The second half of the test, after treatment, before 741 ± 126) | Total mark of fine motor quality ([2]; after treatment, before 2.24 ± 0.21) | SNAP-IV impulsivity ([2]; after two-month treatment, before 2.40 ± 0.28) | SNAP-IV hyperactivity ([2]; after two-month treatment, before 2.64 ± 0.29) | SNAP-IV disorder of attention ([2]; after two-month treatment, before 2.76 ± 0.31)
– | – | – | – | COCCOC(=O)C1=C(C)NC(C)=C(C(=O)OC(C)C)C1c1cccc([N+](=O)[O-])c1 (centres unmarked) [Nimodipine, nimodipine] | 16.7% | 171.00 (163.00; 175.00) s | 24.22% | – | – | – | – | – | – | – | – | – | –
11.1% | 26% | 3 | 7 | NC(=O)CN1CCCC1=O [Piracetam] | – | – | – | 12.6 ± 3.1% | 13.5 ± 1.4 % | 745 ± 87 ms | 20.5 ± 2.9% | 16.9 ± 2.9 % | 665 ± 77 ms | 1.62 ± 0.16 | 2.36 ± 0.20 | 2.46 ± 0.11 | 2.52 ± 0.13
